Tests used:
[1] = test system: NCI-H1437 cells; experiment: CCK-8 assay for cell proliferation and cytotoxicity, NCI-H1437; assay type: cell-based; settings: Homo sapiens, CCK-8, 48 h, read-out: IC50 1437
Protocol: (§1) Three types of lung cells were seeded into 96-well plate at a density of 5 × 10^3 cells per well at logarithmic growth phase and cultured in 37 °C. […] After that, cell viability was determined according to the instruction of the CCK-8 assay. Next, 10 μL of CCK-8 solution was added to each well of the plate and incubate the plate for 1–4 h in the incubator. The absorbance was measured at 450 nm using a microplate reader (Bio-Tek). The percentage of viable cells was measured using the following formula where three independent experiments were performed: [(A450 sample − A450blank)/(A450 control − A450blank)] × 100%.

[2] = test system: H1299 cells; experiment: Flow cytometry detection of apoptosis (Annexin V-EGFP/PI); assay type: cell-based, human; settings: 48 h
Protocol: H1299 cells were treated with different concentrations of 7a and 7j for 48 h. The cells were stained with Annexin-V and PI, and the proportion of apoptotic cells was detected using flow cytometry.
H1299 cells were seeded in a 6-well plate at a density of 1 × 10^5 cells/well and incubated for 24 h. On the following day, the medium was replaced with fresh medium containing 7a or 7j (2, 4 and 8 μmol/L) and cells were incubated for an additional 48 h. Cell apoptosis was detected using Annexin V-EGFP/PI apoptosis detection Kit by flow cytometry. Subsequently, 5 µl of […] Annexin V and 10 µl of PI was added to the cell suspension, gently vortexed, and incubated at room temperature in the dark for 20 min, then single-cell suspension was prepared followed by flow cytometry (BD Accuri™ C6 Plus).

[3] = test system: H1299 cells; experiment: Colony formation assay; assay type: cell-based, human; settings: 7 days
Excerpt: The colony formation assay is an important method for evaluating the ability of adherent cells to proliferate and form colonies on a plate, and it is widely used to assess cell proliferation. We also employed the colony formation assay to further confirm that compounds 7a and 7j can inhibit the proliferation of lung cancer cells, as shown in Fig. 5. After treating lung cancer cells with low, medium, and high concentrations (1, 2, 4 μmol/L) of compounds for 7 days, the number of cell colonies was counted to analyze the proliferation inhibition rate.
H1299 cells were seeded in six-well plates at a density of 500 cells per well and treated with 7a or 7j (1, 2 and 4 μmol/L) for 7 days. Then, cells were per-fixed with 4% paraformaldehyde for 30 min, stained with 0.1% Crystal violet for 15 min, and then washed with pure water. Taking a picture after the plates were air-dry. The clone formations number was counted with Image J.

[4] = test system: Kunming mice; experiment: Acute oral toxicity test in mice; settings: mouse, in vivo
Excerpt: SPF-grade healthy Kunming mice (weighing 20 ± 2 g) were purchased from Henan Skibbes Bio-technology Co., Ltd (Licence No.: SCXK (Yu) 2020–0005). The mice were provided free access to drinking water and adaptive feeding for 7 days.
Twenty Kunming mice (half male and half female) were randomly allocate into 4 groups: 7a-treated group (male), 7a-treated group (female), control group (male) and control group (female). The control groups were given PBS intragastric administration, while the 7a groups were given the 7a solution (400 mg/kg, respectively), once a day for 2 consecutive days. Body weight and appearance were monitored for a total period of 12 days (from the first day after treating with 7a). The mice were killed by cervical dislocation on the 12th day, and blood samples were collected for the biochemistry test. Then, we measured liver and kidney function indicators such as alanine aminotransferase (ALT), aspartate aminotransferase (AST), serum creatinine (CRE) and blood urea nitrogen (BUN) (Nanjing Jiancheng Bioengineering Institute, China). The organs (brain, heart, liver, spleen, lungs, kidneys stomach) were harvested, and fixed in 10% formaldehyde and paraffin-embedded for histological examination. Finally, these sections were stained with haematoxylin and eosin for light microscopic examination.

[5] = test system: NCI-H1299 cells; experiment: CCK-8 assay for cell proliferation and cytotoxicity, NCI-H1299; assay type: cell-based; settings: Homo sapiens, CCK-8, 48 h
Protocol: as §1

[6] = test system: Bcl-2, caspase9, Cleaved-Caspase3, Cleaved-PARP, MMP9 in H1299 cells; experiment: Western blot of apoptosis- and migration-related proteins; assay type: cell-based, human; settings: H1299, 4, 8 or 16 μM, 48 h
Excerpt: We conducted an in-depth investigation into the mechanism of apoptosis induced by compounds 7a and 7j. The Bcl-2 protein family is located upstream of the apoptosis signaling pathway. Bcl-2 proteins play an anti-apoptotic role by inhibiting the release of cytochrome C (cyt-c) from mitochondria. Previous literature reports that many anticancer drugs induce apoptosis by downregulating Bcl-2 expression. During apoptosis, the expression of Bcl-2 is inhibited, cyt-c is released, and it binds with the apoptotic protease activation factor to form the apoptosome. This triggers a cascade reaction of Caspase family proteins, with apoptosome promoting the activation of Caspase9. Activated Caspase9 then activates Caspase3, forming the Caspase3 cleavage body, which further activates downstream PARP protein, ultimately promoting cell apoptosis. […] After treating H1299 cells with different concentrations of compounds for 48 h, cell proteins were extracted, and western blot was used to detect the expression changes of apoptosis-related proteins.
Firstly, H1299 cells were treated with different concentrations concentrations of 7a and 7j at 4, 8 and 16 μmol/L for 48 h, cells were harvested using RIPA lysate (R0010, Solarbio) and centrifuged at 12,000 rpm for 15 min at 4 °C, and then the concentration of total protein was measured and taken from the supernatant. Protein was separated by 12% SDS–polyacrylamide gel electrophoresis and transferred to nitrocellulose filter membrane. after blocking in 5% milk for 2 h, the membranes were incubated with specific primary antibody at 4 °C overnight. Next day, NC membranes were incubated for 1 h at room temperature with appropriate secondary antibodies, and then Protein bands was visualizing by chemiluminescence detection (ECL kit, Genview).

[7] = test system: H1299 cells; experiment: DAPI staining for cell apoptosis; assay type: cell-based, human; settings: H1299, 2, 4 and 8 μmol/L, 48 h
Protocol: In order to further verify the apoptotic activity induced by 7a and 7j in lung cancer cells, H1299 cells were treated with different concentrations of compounds 7a and 7j for 48 h, followed by DAPI staining. […] As the drug concentration increased, nuclear staining intensified, and even nuclear condensation and fragmentation phenomena were observed.
H1299 (1.5 × 10^4 ~ 2 × 10^4 /well) cells were seeded in 24-well plates for 24 h, and then treated with 7a or 7j at the concentrations of 2,4 and 8 μmol/L for 48 h., the cells were fixed for 30 min at room temperature in 4% paraformaldehyde and washed 3 times in PBS. Finally, every well was stained with DAPI (10 µg/mL, C0065, Solarbio) at room temperature for 30 min, and washed at least three times in PBS. The fluorescence microscope was used to observe the morphological changes of cell nuclei.

SMILES: COc1cc2ncnc(Nc3cccc(-c4cn(Cc5cc(F)ccc5Br)nn4)c3)c2cc1OCCCN1CCOCC1 [Compound 7a]
- IC50 [1]: 1830 ± 130 nM
- total apoptotic cell proportion ([2]; H1299, 2 μmol/L): 19.03 ± 2.10%
- total apoptotic cell proportion ([2]; H1299, 4 μmol/L): 28.73 ± 1.12%
- total apoptotic cell proportion ([2]; H1299, 8 μmol/L): 50.1 ± 2.91%
- formation of H1299 cell colonies ([3]; 1 μmol/L): markedly inhibit
- colony formation ([3]; H1299, 4 μmol/L): almost completely suppressed
- acute toxicity in mice [4]: low toxicity
- IC50 [5]: 3940 ± 170 nM
- Bcl-2 protein expression level [6]: decrease
- Cleaved-Caspase3 protein expression level [6]: increased
- Cleaved-PARP protein expression level [6]: increased
- MMP9 protein expression [6]: downregulated
- caspase9 protein expression level [6]: decrease
- apoptotic morphology by DAPI staining [7]: exhibited typical apoptotic features

Reference: paper PMC11035632, “Discovery of gefitinib-1,2,3-triazole derivatives against lung cancer via inducing apoptosis and inhibiting the colony formation” (Scientific Reports, 2024)
